Like-named read-outs stand apart in the source and are kept apart here. *1 amine or outer side, *2 acyl side, *3 side chain or, on linkers, in order; H or OH if unused. Where a SMILES comes first, the peptide text is derived from it. Bridges are numbered along the chain shown (N, C = ends). [ ]: non-standard residue; d: D form. The star is where a group is joined. TATA = O=C(CC[*:1])N1CN(C(=O)CC[*:2])CN(C(=O)CC[*:3])C1; NOTA = O=C(O)CN1CCN(CC(=O)O)CCN(CC(=O)*)CC1; Hyp = O=C(O)[C@@H]1C[C@@H](O)CN1; hArg = N=C(N)NCCCC[C@H](N)C(=O)O; PEG2 = NCCOCCOCCC(=O)O; Sar = CNCC(=O)O
What was measured:
AsPC1 cells = test: In vitro binding assay with Ga-68 radiotracer; format: cell-based, human; conditions: 1 µCi, 60 min, 4 °C, mean ± SD (n = 3-4)
Experimental: (§1) In vitro binding assays were performed to determine the binding of [^68Ga]AJ201 and [^68Ga]AJ210 to Jurkat and PDAC cell lines. Approximately 1 μCi of radiotracer was incubated with cells in 100 μL culture media for 60 min at 4 °C. After incubation, cells were washed three times with ice cold PBS and counted on an automated gamma counter (1282 Compugamma CS, Pharmacia/LKBNuclear, Inc., Gaithersburg, MD). […] For kinetic study, 8×10^6 Panc1 cells/vial were incubated with approximately 8 μCi/vial of [^68Ga]AJ201 in culture media in triplicates at 37 °C and 4 °C in separate tubes. 1×10^6 cells were aliquoted at predetermined timepoints (5, 15, 30, 60 min). Excess radioactivity was removed by washing three times with PBS. Activity in cell pellets were measured on an automated gamma counter.

BxPC3 cells = test: In vitro binding assay with Ga-68 radiotracer; format: cell-based, human; conditions: 1 µCi, 60 min, 4 °C, mean ± SD (n = 3-4)
Experimental: as §1

CFPAC cells = test: In vitro binding assay with Ga-68 radiotracer; format: cell-based, human; conditions: 1 µCi, 60 min, 4 °C, mean ± SD (n = 3-4)
Experimental: as §1

Hs766T cells = test: In vitro binding assay with Ga-68 radiotracer; format: cell-based, human; conditions: 1 µCi, 60 min, 4 °C, mean ± SD (n = 3-4)
Experimental: as §1

Jurkat cells = test: In vitro binding assay with Ga-68 radiotracer; format: cell-based, human; conditions: Jurkat (negative control cells); 1 µCi, 60 min, 4 °C; mean ± SD (n = 3-4)
Experimental: as §1

Panc1 cells = test: In vitro binding assay with Ga-68 radiotracer; format: cell-based, human
Experimental: as §1

Panc1005 cells = test: In vitro binding assay with Ga-68 radiotracer; format: cell-based, human; conditions: 1 µCi, 60 min, 4 °C, mean ± SD (n = 3-4)
Experimental: as §1

Ex vivo biodistribution = format: in vivo, NSG mice; conditions: both sexes, NSG, mouse, total radioactivity, 60 min p.i., mean ± SEM (n = 4 or 5)
Experimental: Animal studies were performed under Johns Hopkins University Animal Care and Use Committee (ACUC)-approved protocol (Principal investigator: Sridhar Nimmagadda, Ph.D. and Protocol number M021M175). Male and Female NSG mice (5-6 weeks old) were purchased from JHU immunocompromised core and used to establish xenografts by administering cells subcutaneously (top right flank, unless otherwise noted) to form various tumor models within 3-4 weeks. Following cell numbers were used: Panc1, AsPC1, BxPC3 (1 M), Hs766T and SU8686 (2 M), CFPAC and Panc1005 (5 M). Imaging or biodistribution studies (n = 3-5) were conducted on mice with tumor volumes of 100-200 mm^3. The Panc1 orthotopic tumor model was established by surgically implanting a 3-5 mm^3 section of Panc1 tumor xenograft directly onto the pancreas. The implanted tumors were allowed to grow and were ready for imaging after 10 days of implantation.
Mice with 100-200 mm^3 tumor volume were used for ex vivo biodistribution studies. For radiotracer pharmacokinetics and dosimetry studies, mice with Panc1 tumor xenograft received ~80 µCi (2.96 MBq) [^68Ga]AJ201 and were sacrificed at pre-determined time points (5, 30, 60, 90 and 120 min). All other mice were injected with ~50 µCi (1.85 MBq; 0.2 to 0.5 nmol) Ga-68 labeled radiotracer and were sacrificed at 60 min. The selected tissues were collected, weighed, counted, and their %ID/g values calculated for biodistribution analysis. For pharmacokinetics and dosimetry studies, selected tissues included blood, muscle, tumor, thymus, heart, lung, liver, pancreas, stomach, small intestine, large intestine, spleen, adrenals, kidney, bladder, femur, brain and tumor xenografts. For other studies, selected tissues were blood, muscle, tumor, heart, lung, liver, pancreas, small intestine, spleen, kidney.

## CC(C)C[C@@H]1NC(=O)[C@@H]2CSCCC(=O)N3CN(CN(C3)C(=O)CCSC[C@H](NC(=O)[C@H](CC(=O)O)NC(=O)[C@H](CCCCNC(=N)N)NC(=O)[C@H](C)NC(=O)CNC(=O)CN(C)C(=O)CN(C)C(=O)CN(C)C(=O)[C@H](CCCNC(=N)N)NC(=O)CNC(=O)CCOCCOCCNC(=O)CN3CCN(CC(=O)O)CCN(CC(=O)O)CC3)C(=O)N3C[C@H](O)C[C@H]3C(=O)N[C@@H](CC(C)C)C(=O)N[C@@H](C(C)C)C(=O)N[C@@H](CC(N)=O)C(=O)N3CCC[C@H]3C(=O)N[C@@H](CC(C)C)C(=O)N2)C(=O)CCSC[C@@H](C(N)=O)NC(=O)[C@H](CCCCNC(=N)N)NC(=O)[C@H](Cc2c[nH]c3ccccc23)NC(=O)[C@@H](CC(=O)O)NC(=O)[C@@H]2CCCN2C(=O)[C@H](Cc2c[nH]cn2)NC1=O [[^68Ga]AJ201, metal not drawn] ({NOTA-PEG2}-GR[Sar][Sar][Sar]GA[hArg]DC[Hyp]LVNPLCLHP[dD]W[hArg]C-NH2; linker 10-17-24 via TATA)
AsPC1 cells
  Cell binding (percent incubated activity): 9.9 ± 1.2 %IA
BxPC3 cells
  Cell binding (percent incubated activity): 5.9 ± 0.2 %IA
CFPAC cells
  Cell binding (percent incubated activity): 1.7 ± 0.3 %IA
Hs766T cells
  Cell binding (percent incubated activity): 7.2 ± 0.6 %IA
Jurkat cells
  Cell binding (percent incubated activity): 0.8 ± 0.1 %IA
Panc1 cells; 4 °C, time points 5, 15, 30, 60 min
  Time to uptake stabilization in Panc1 cells: around 30 min
Panc1 cells; 37 °C, time points 5, 15, 30, 60 min
  Time to uptake equilibrium in Panc1 cells: ≤ 15 min
Panc1 cells; in the presence of non-radioactive AJ201 (2 µM), P<0.0001
  Reduction of binding to Panc1 cells by blocking: more than 95%
Panc1005 cells
  Cell binding (percent incubated activity): 4.7 ± 0.1 %IA
Ex vivo biodistribution; blood, AsPC1 xenograft, read-out: Blood uptake
  tissue uptake at 1 h: 3.32 ± 0.24 %ID/g
Ex vivo biodistribution; blood, BxPC3 xenograft, read-out: Blood uptake
  tissue uptake at 1 h: 0.58 ± 0.04 %ID/g
Ex vivo biodistribution; blood, CFPAC xenograft, read-out: Blood uptake
  tissue uptake at 1 h: 0.69 ± 0.21 %ID/g
Ex vivo biodistribution; blood, Hs766T xenograft, read-out: Blood uptake
  tissue uptake at 1 h: 1.39 ± 0.3 %ID/g
Ex vivo biodistribution; blood, Panc1005 xenograft, read-out: Blood uptake
  tissue uptake at 1 h: 0.44 ± 0.05 %ID/g
Ex vivo biodistribution; blood, Su8686 xenograft, read-out: Blood uptake
  tissue uptake at 1 h: 0.71 ± 0.18 %ID/g
Ex vivo biodistribution; heart, AsPC1 xenograft, read-out: Heart uptake
  tissue uptake at 1 h: 1.25 ± 0.1 %ID/g
Ex vivo biodistribution; heart, CFPAC xenograft, read-out: Heart uptake
  tissue uptake at 1 h: 0.34 ± 0.08 %ID/g
Ex vivo biodistribution; heart, Hs766T xenograft, read-out: Heart uptake
  tissue uptake at 1 h: 0.9 ± 0.25 %ID/g
Ex vivo biodistribution; heart, Panc1005 xenograft, read-out: Heart uptake
  tissue uptake at 1 h: 0.2 ± 0.02 %ID/g
Ex vivo biodistribution; heart, Su8686 xenograft, read-out: Heart uptake
  tissue uptake at 1 h: 0.25 ± 0.06 %ID/g
Ex vivo biodistribution; kidney, AsPC1 xenograft, read-out: Kidney uptake
  tissue uptake at 1 h: 59.6 ± 2.86 %ID/g
Ex vivo biodistribution; kidney, BxPC3 xenograft, read-out: Kidney uptake
  tissue uptake at 1 h: 59 ± 7.17 %ID/g
Ex vivo biodistribution; kidney, CFPAC xenograft, read-out: Kidney uptake
  tissue uptake at 1 h: 69.1 ± 4.56 %ID/g
Ex vivo biodistribution; kidney, Hs766T xenograft, read-out: Kidney uptake
  tissue uptake at 1 h: 52.6 ± 4.07 %ID/g
Ex vivo biodistribution; kidney, Panc1005 xenograft, read-out: Kidney uptake
  tissue uptake at 1 h: 67 ± 6.9 %ID/g
Ex vivo biodistribution; kidney, Su8686 xenograft, read-out: Kidney uptake
  tissue uptake at 1 h: 37.7 ± 2.64 %ID/g
Ex vivo biodistribution; liver, AsPC1 xenograft, read-out: Liver uptake
  tissue uptake at 1 h: 1.59 ± 0.07 %ID/g
Ex vivo biodistribution; liver, BxPC3 xenograft, read-out: Liver uptake
  tissue uptake at 1 h: 0.42 ± 0.02 %ID/g
Ex vivo biodistribution; liver, CFPAC xenograft, read-out: Liver uptake
  tissue uptake at 1 h: 0.43 ± 0.09 %ID/g
Ex vivo biodistribution; liver, Hs766T xenograft, read-out: Liver uptake
  tissue uptake at 1 h: 0.89 ± 0.21 %ID/g
Ex vivo biodistribution; liver, Panc1005 xenograft, read-out: Liver uptake
  tissue uptake at 1 h: 0.29 ± 0.03 %ID/g
Ex vivo biodistribution; liver, Su8686 xenograft, read-out: Liver uptake
  tissue uptake at 1 h: 0.34 ± 0.06 %ID/g
Ex vivo biodistribution; lung, AsPC1 xenograft, read-out: Lung uptake
  tissue uptake at 1 h: 2.78 ± 0.13 %ID/g
Ex vivo biodistribution; lung, BxPC3 xenograft, read-out: Lung uptake
  tissue uptake at 1 h: 0.7 ± 0.04 %ID/g
Ex vivo biodistribution; lung, CFPAC xenograft, read-out: Lung uptake
  tissue uptake at 1 h: 0.89 ± 0.2 %ID/g
Ex vivo biodistribution; lung, Hs766T xenograft, read-out: Lung uptake
  tissue uptake at 1 h: 1.71 ± 0.55 %ID/g
Ex vivo biodistribution; lung, Panc1005 xenograft, read-out: Lung uptake
  tissue uptake at 1 h: 0.54 ± 0.05 %ID/g
Ex vivo biodistribution; lung, Su8686 xenograft, read-out: Lung uptake
  tissue uptake at 1 h: 0.76 ± 0.16 %ID/g
Ex vivo biodistribution; muscle, AsPC1 xenograft, read-out: Muscle uptake
  tissue uptake at 1 h: 0.41 ± 0.03 %ID/g
Ex vivo biodistribution; muscle, BxPC3 xenograft, read-out: Muscle uptake
  tissue uptake at 1 h: 0.18 ± 0.01 %ID/g
Ex vivo biodistribution; muscle, Hs766T xenograft, read-out: Muscle uptake
  tissue uptake at 1 h: 0.46 ± 0.13 %ID/g
Ex vivo biodistribution; muscle, Panc1005 xenograft, read-out: Muscle uptake
  tissue uptake at 1 h: 0.11 ± 0.01 %ID/g
Ex vivo biodistribution; muscle, Su8686 xenograft, read-out: Muscle uptake
  tissue uptake at 1 h: 0.16 ± 0.04 %ID/g

— publication PMC11984392, “EphA2-targeted alpha-particle theranostics for enhancing PDAC treatment” (Theranostics, 2025)
